Experiment [1] deals with T1, delta opioid receptor (Homo sapiens, UniProt P41143).
T1 construct: expressed in transfected cells
In words: Secondary radioligand binding assay (affinity). The settings on record: mean±SE; read-out: Ki DOR. As for the experimental part: (§1) The secondary binding assay was performed only when the inhibition in the primary screen was over 50%. A secondary binding assay was utilized to determine the binding affinity for the identified receptor.
(§2) 50 μL of a crude membrane fraction of cells expressing the respective receptors were applied to each well. Reaction incubation, harvesting and radioactivity measurement from the primary assay were repeated. Affinity is expressed as pKi (−log Ki).

Experiment [2] has as its target T2, norepinephrine transporter (NET) (Homo sapiens, UniProt P23975).
T2 construct: expressed in transfected cells
Kind of experiment: Secondary radioligand binding assay (affinity). The note with it: mean±SE. Here is the method: as §1, §2

The target of experiment [3] is T3, serotonin transporter (SERT) (Homo sapiens, UniProt P31645).
T3 construct: expressed in transfected cells
Kind of experiment: Secondary radioligand binding assay (affinity). As for the experimental part:
as §1, §2

Experiment [4] has as its system chronic constriction injury (CCI) rats. Kind of experiment: Tactile allodynia, paw withdrawal threshold in CCI model. It counts as in vivo, rat. The settings on record: 3 mg/kg IP daily, days 1-10 after CCI, vs NS group, P<0.05. Here is the method:
CCI procedures on the sciatic nerve of male SD rats were performed as previously described. Briefly, after rats were anesthetized by i.p. injection of sodium pentobarbital (40 mg/kg), the right sciatic nerve of the mid-thigh level was exposed. Chromic gut 4-0 was loosely tied around the nerve for 4 ligatures with about 1 mm between knots. The ligation was performed to just barely reduce the diameter of sciatic nerve. […] In the sham group, the sciatic nerve was exposed without ligation. The incisions of rats were closed in layers. After recovery from anesthesia, rats were housed individually in the clear plastic cages with soft bedding covered with 3-6 cm of sawdust.
Same volume of normal saline (2 ml) was injected in the other two groups at the same time.
The paw withdrawal threshold (PWT) was used to evaluate mechanical allodynia for nociceptive response with Von Frey filaments. The rats were placed in transparent plexiglass cage with a wire mesh floor. After acclimating to their environments for 30 minutes, each filament was applied perpendicularly to the plantar surface of the right hind paw. The end point was determined as paw withdrawal accompanied by biting, head turning and/or licking. The force (in gram, g) needed for this reaction was recorded. […]

In experiment [5] the test system is morphine dependent rats. In words: Morphine withdrawal syndrome scoring.
Description: (1) The same volumes of normal saline (NS) were received subcutaneously in the naïve group. All other interventional drugs are administered by intraperitoneal injection.

Counter-ions that a name gives are not always drawn.

T3 sequence (P31645 whole entry): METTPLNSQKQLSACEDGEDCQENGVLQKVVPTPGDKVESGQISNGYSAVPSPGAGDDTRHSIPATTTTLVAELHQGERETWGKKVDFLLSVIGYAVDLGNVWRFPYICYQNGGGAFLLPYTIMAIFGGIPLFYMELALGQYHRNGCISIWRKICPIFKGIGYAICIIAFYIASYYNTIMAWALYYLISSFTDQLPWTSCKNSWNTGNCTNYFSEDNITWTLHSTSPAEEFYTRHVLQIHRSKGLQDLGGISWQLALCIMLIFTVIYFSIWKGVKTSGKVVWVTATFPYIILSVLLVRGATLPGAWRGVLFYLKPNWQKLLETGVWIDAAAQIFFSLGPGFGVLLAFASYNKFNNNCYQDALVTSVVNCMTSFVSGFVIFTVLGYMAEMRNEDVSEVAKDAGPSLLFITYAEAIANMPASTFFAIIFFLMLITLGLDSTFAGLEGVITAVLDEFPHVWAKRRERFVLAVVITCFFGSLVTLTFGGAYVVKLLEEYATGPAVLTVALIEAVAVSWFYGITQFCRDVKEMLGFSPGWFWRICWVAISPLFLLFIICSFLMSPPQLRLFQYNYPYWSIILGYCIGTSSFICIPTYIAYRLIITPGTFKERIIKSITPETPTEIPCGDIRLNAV
T1 sequence (P41143 whole entry): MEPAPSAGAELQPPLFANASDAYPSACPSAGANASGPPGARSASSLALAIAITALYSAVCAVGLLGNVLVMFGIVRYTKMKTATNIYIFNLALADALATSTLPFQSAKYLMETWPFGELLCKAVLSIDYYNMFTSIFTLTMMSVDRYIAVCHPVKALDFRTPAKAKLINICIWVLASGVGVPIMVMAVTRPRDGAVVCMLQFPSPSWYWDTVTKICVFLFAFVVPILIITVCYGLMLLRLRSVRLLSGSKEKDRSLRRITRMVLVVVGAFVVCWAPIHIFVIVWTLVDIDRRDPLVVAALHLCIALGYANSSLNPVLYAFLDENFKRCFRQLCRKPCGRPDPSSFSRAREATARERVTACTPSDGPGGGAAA
T2 sequence (P23975 whole entry): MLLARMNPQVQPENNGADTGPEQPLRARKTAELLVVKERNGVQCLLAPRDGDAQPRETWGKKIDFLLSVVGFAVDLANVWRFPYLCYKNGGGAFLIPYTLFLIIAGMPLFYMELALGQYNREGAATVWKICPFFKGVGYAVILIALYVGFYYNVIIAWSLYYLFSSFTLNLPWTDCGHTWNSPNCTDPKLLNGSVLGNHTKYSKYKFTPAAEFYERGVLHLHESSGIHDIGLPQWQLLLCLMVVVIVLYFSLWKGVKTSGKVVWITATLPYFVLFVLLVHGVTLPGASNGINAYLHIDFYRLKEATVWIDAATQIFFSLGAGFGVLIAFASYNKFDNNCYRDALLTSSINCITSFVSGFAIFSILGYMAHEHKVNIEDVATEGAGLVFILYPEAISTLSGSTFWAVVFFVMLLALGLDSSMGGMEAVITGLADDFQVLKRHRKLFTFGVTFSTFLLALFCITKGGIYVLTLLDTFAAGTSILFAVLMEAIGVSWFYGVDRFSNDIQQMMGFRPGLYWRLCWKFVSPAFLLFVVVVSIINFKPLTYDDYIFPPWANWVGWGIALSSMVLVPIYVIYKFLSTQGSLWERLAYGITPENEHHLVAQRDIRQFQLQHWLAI

As a reminder, the Ki is the dissociation constant of the complex between target and ligand, obtained from inhibition or displacement. Consider `C[C@@]12CCCCC[C@@H](Cc3ccc(O)cc31)[C@@H]2N` [Dezocine, (−)-13β-amino-5,6,7,8,9,10,11,12-octahydro-5α-methyl-5,11-methanobenxocyclodecen-31-ol, hydrobromide], for which the Ki was found to be 527 ± 70 nM in experiment [1] and 111 nM in experiment [3] (FIG. 12). Further, the “pKi NET” value in experiment [2] turned out to be 6.00±0.10. Moreover, the “pKi SERT” value in experiment [3] (mean±SE) is 6.96±0.08. In addition, the “paw withdrawal threshold (PWT)” value in experiment [4] is “increased markedly”. In addition, the “total score of morphine withdrawal symptoms” value in experiment [5] (days 1-7, vs DMSO group, n=12, P<0.01 (FIG. 18)) is “alleviated the morphine withdrawal syndrome”; in experiment [5] (dezocine 5 mg/kg IP, days 1-7, vs NS group, P<0.01) it was “decreased significantly”.

(Values after patent US9956187B2 (priority 2014, dated 2018).)
